Assays:
HCV 1b replicon = assay: HCV GT1b replicon assay in Huh-7 cells; type: cell-based, Hepatitis C virus; conditions: Hepatitis C virus; Huh-7 cells transfected with HCV replicon, 72 hours incubation; read-out: EC50 against HCV 1b genotype
Experimental: (§1) HCV Replicon System was utilized as an evaluation model in the present disclosure for verifying the effects of the compounds disclosed herein on HCV. An HCV Replicon assay was first described in Science, 1999, 285 (5424), 110-3. […] To determine the potential anti-HCV effects of the test compounds, luciferase assay and antibiotic Neomycin resistance gene were tested according to the method described in Science. 1999 Jul. 2; 285 (5424), 110-3 and J. Virol. 2003 March; 77 (5), 3007-19.
(§2) In a word, the compounds disclosed herein were tested by using human hepatic carcinoma cell line which is transfected stably HCV GT1a, GT1b or GT2a replicon respectively, and resistant cells Y93H, L31F, P32L or I302V and wild-type cells HCV 1b. HCV Replicon System disclosed herein containing Neomycin resistance gene and Luciferase Reporter Gene, the level of HCV replication in host cells is characterized by the expression level of the NEO gene expression level or Luciferase Reporter Gene, and the effects of the compounds herein inhibit HCV replication can be evaluated. In this article, a real-time quantitative polymerase chain reaction (qPCR) method was used to detect NEO gene expression level, and chemiluminescence method was used to test Luciferase Reporter Gene expression level.
(§3) 1. Test Method for Measuring EC50 of the Compounds Base on Luciferase Assay.
(§4) The Huh-7 cells transfected with HCV replicons system were seeded into 96-well plates (8,000 cells in 125 μL/well) respectively; each test compound was diluted to desired concentration using 5-fold serial dilutions protocol, 10 doses in duplicate, and added to wells with POD™ 810 Plate Assembler. […] In this paper, experiments were repeated twice and set the holes without compounds as negative control.
(§5) 2. Test Method for Measuring EC50 of the Compounds by Detecting Antibiotic G418 Resistance Gene NEO Gene.
(§6) In this paper, experiments were repeated twice and set the holes without compounds as negative control.

HCV 1a replicon = assay: HCV GT1a replicon assay in Huh-7 cells; type: cell-based, Hepatitis C virus; conditions: Hepatitis C virus; Huh-7 cells transfected with HCV replicon, 72 hours incubation; read-out: EC50 against HCV 1a genotype
Experimental: as §1, §2, §3, §4, §5, §6

| SMILES | EC50 (HCV 1b replicon) [nM] | EC50 (HCV 1a replicon) [nM] |
| --- | --- | --- |
| COC(=O)N[C@H](C(=O)N1CCC[C@H]1c1ncc(-c2ccc(-c3ncc(-c4ccc5nc([C@@H]6CCCN6C(=O)[C@@H](NC(=O)OC)C(C)C)[nH]c5c4)c4c3CC3(CCCC3)C4)c3c2CCC3)[nH]1)C(C)C [Example 30] | 0.052 | 0.336 |
| COC(=O)N[C@H](C(=O)N1CCC[C@H]1c1ncc(-c2ccc(-c3ncc(-c4ccc5nc([C@@H]6CCCN6C(=O)[C@@H](NC(=O)OC)C(C)C)[nH]c5c4)c4c3CC3(CCCC3)C4)c3ccccc23)[nH]1)C(C)C [Example 31] | 0.539 | 5.87 |
| COC(=O)N[C@H](C(=O)N1CCC[C@H]1c1ncc(-c2ccc(-c3sc(-c4ccc5nc([C@@H]6CCCN6C(=O)[C@@H](NC(=O)OC)C(C)C)[nH]c5c4)c4c3CC3(CCCC3)C4)c3cnoc23)[nH]1)C(C)C [Example 32] | 0.446 | 10.3 |
| COC(=O)NC(C(=O)N1CCC[C@H]1c1ncc(-c2ccc(-c3cc(F)c(-c4ccc5nc([C@@H]6CCCN6C(=O)[C@@H](NC(=O)OC)C(C)C)[nH]c(=O)c5c4)c4c3CC3(CCCC3)C4)nc2)[nH]1)C(C)C (some centres unmarked) [Example 33] | 0.022 | 0.078 |
| COC(=O)NC(C(=O)N1CCC[C@@H]1c1ncc(-c2ccc(-c3ccc(-c4ccc5nc([C@@H]6CCCN6C(=O)[C@@H](NC(=O)OC)C(C)C)[nH]c(=O)c5c4)c4c3CC3(CCCC3)C4)cc2)[nH]1)C(C)C (some centres unmarked) [Example 34] | 0.055 | 0.641 |
| COC(=O)NC(C(=O)N1CCCC1c1cc(=O)c2cc(-c3ccc(-c4ccc(-c5cnc(C6CCCN6C(=O)C(NC(=O)OC)C(C)C)[nH]5)cc4)c4c3CC3(CCCC3)C4)ccc2[nH]1)C(C)C (centres unmarked) [Example 35] | 0.103 | 10.6 |
| COC(=O)NC(C(=O)N1CCCC1C1=Nc2cc(-c3ccc(-c4ccc(-c5cnc(C6CCCN6C(=O)C(NC(=O)OC)C(C)C)[nH]5)cc4)c4c3CC3(CCCC3)C4)ccc2C(C)(C)N1)C(C)C (centres unmarked) [Example 36] | 0.062 | 0.438 |

Source: patent US9416139B2, “Spiro ring compound as hepatitis C virus (HCV) inhibitor and uses thereof” (SUNSHINE LAKE PHARMA CO., LTD., priority 2012, dated 2016)
